Measured values from patent publication US8268306B2, “Pesticidal and antiparasitic compositions” (Centro de Ingenieria Genetica y Biotecnologia, priority 2001, dated 2012).

Key:
[1] = tested on: Trichostrongylus colubriformis; assay: In vitro nematicidal effect of hydrogen sulfide and chitinase, egg hatching; format: cell-based; conditions: Trichostrongilus eggs, emerging larvae after 24 hours; fraction E = 1 − Ntto/Nc; mean of 4 replicas
Procedure: (§1) Eggs from zoonematodes Haemonchus spp and Trichostrongylus colubriformis and Dictyocaulus viviparus were used, as well as parasitic phytonematode larvae (juveniles 2) from Melodoigyne incognita.
(§2) Collections of Haemonchus spp and Trichostrongylus colubriformis nematodes were made from ovine (sheep) and bovine (cattle) abomasa, respectively. The adult female nematodes were washed in a physiological solution and treated with “Hibitane” (Chlorhexidine Acetate) at 0.5%, for 1 minute, the process developed at 37° C. Approximately 100 previously disinfected individuals were introduced into an Erlenmeyer containing 50 ml of LB medium solution, diluted 10 times in distilled sterile water, and were left laying their eggs overnight (8-10 hours).
(§3) From that moment on, manipulation was done under aseptic conditions in a vertical laminar flow, using 24-well tissue culture plates. The total volume of the medium that contained the females and the eggs was filtered with a sift net of 60 μm. The nematode eggs were trapped on the 30 μm net of a second sifts. It was introduced into a Hibitane solution at 0.5% for 3 minutes, followed by three washes with LB medium diluted 10 times in sterile distilled water.
(§4) Once disinfected, the eggs were removed from the sift and were carefully resuspended with a LB medium solution diluted 10 times in sterile distilled water. The final result of the distribution was checked by counting and registering the eggs in each well with an inverted Olympus microscope, observations of the uniformity of the evolutionary state in this phase were made too.
(§5) The Haemonchus spp and T. colubriformis' eggs hatch between 24 and 48 hours of incubation at 28° C., whereas the D. vivparus' eggs hatch before 24 hours. A good sample preparation is accomplished when in all the untreated controls more than 60% of hatching occurs in the previously foreseen times for each species.
(§6) The nematode's eggs and larvae were placed in a number of 100 individuals in approximately 2 ml of LB medium diluted 10 times. This volume was introduced into safety valves that allow the air to go through the liquid and, therefore, the gasses make contact with the eggs and larvae. Every valve was a replica for each treatment.
(§7) The hydrogen sulfide was obtained by a reaction against the chloride acid of two sulfide salts (Na2S and FeS), and from an anaerobial fermentation of bacterium Desulfovibrio desulfuricans subs. desulfuricans ATCC 27774 (isolated from an ovine rumen). The chitinolytic enzyme used was chitinase SIGMA C 1650, from bacterium Serratia marcescens.
(§8) The nematode's eggs and larvae under the study were subjected to the following treatments for 24 hours:
(§9) 1. Control treatment: chitinase not applied, and air circulated through the valve.
(§10) 2. Chitinase treatment: chitinase at a rate of 0.2 units per replica.
(§11) 3. Sulfide treatment: hydrogen sulfide from Na2S with a 0.2 flux at 0.3 mg/minute.
(§12) 4. Sulfide treatment: hydrogen sulfide from FeS with a 0.2 flux at 0.3 mg/minute.
(§13) 5. Sulfide treatment: hydrogen sulfide from Desulfovibrio desulfuricans with a 0.2 flux at 0.3 mg/minute.
(§14) 6. Combined treatment: simultaneous application of treatments 2 and 3.
(§15) 7. Combined treatment: simultaneous application of treatments 2 and 4.
(§16) 8. Combined treatment: simultaneous application of treatments 2 and 5.
(§17) All the above treatments had 4 replicas.
(§18) Twenty-four hours after starting the experiment the emerging larvae (Haemonchus sp., T. colubriformis and D. viviparous) and the number of live larvae (Melodogyne incognita) in all the treatments, were counted. This value is the mean of the 4 replicas in every treatment. The variance analysis (ANOVA) was applied to the results obtained in each nematode species in the study, separately; the Duncan test (Lerch G. 1977. La Experimentación en las ciencias biológicas y agrícolas. 1^ra edición, p.p. 203-308, Editorial Científico-Técnica, La Habana) was applied, which is also shown in table 1. […]

[2] = tested on: Haemonchus spp; assay: as above; format: cell-based; conditions: Haemonchus eggs, emerging larvae after 24 hours; fraction E = 1 − Ntto/Nc; mean of 4 replicas
Procedure: as §1, §2, §3, §4, §5, §6, §7, §8, §9, §10, §11, §12, §13, §14, §15, §16, §17, §18

[3] = tested on: Melodoigyne incognita; assay: In vitro nematicidal effect of hydrogen sulfide and chitinase, live larvae (juveniles 2); format: cell-based, Meloidogyne incognita; conditions: Meloidogyne larvae, live larvae after 24 hours; fraction E = 1 − Ntto/Nc; mean of 4 replicas
Procedure: as §1
The collection of egg mass of Meloidogyne incognita was performed from squash roots (Cucurbita pepo), previously infested and cultivated in greenhouses. For this operation a stereoscope microscope and needles with properly altered tips were used. The masses were put in sterile distilled water in Petri dishes at 28° C., in a number of 50 masses per dish. Daily observations were made to check egg hatching. In approximately 72 hours, there were enough larvae to start collecting and disinfecting.
The total volume of water containing the egg masses and the larvae were filtered through a sift net of 60 μm. From that moment on all the manipulation was done under aseptic conditions in a vertical laminar flow, using 24-well tissue culture plates. The eggs detached from the mass were unable to hatch and remained on the sift net of 30 μm; the larvae were collected with a further net of 5 μm. It was introduced into a Hibitane solution at 0.5% for 3 minutes followed by 3 washes with LB medium diluted 10 times in sterile distilled water. Once disinfected, the Meloidogyne incognita larvae were removed from the sift net and carefully resuspended with a LB medium solution diluted 10 times in sterile distilled water. The final collecting and disinfecting results were checked by counting and registering the live larvae with an inverted Olympus microscope.
as §6, with “treatment. […]” for “treatment.”
(§19) Twenty-four hours after starting the experiment the emerging larvae (Haemonchus sp., T. colubriformis and D. viviparous) and the number of live larvae (Melodogyne incognita) in all the treatments, were counted. […]

[4] = tested on: Dictyocaulus viviparus; assay: In vitro nematicidal effect of hydrogen sulfide and chitinase, egg hatching; format: cell-based; conditions: Dictyocaulus eggs, emerging larvae after 24 hours; fraction E = 1 − Ntto/Nc; mean of 4 replicas
Procedure: as §1
Collections of D. viviparous nematode were made from the infested lung of a bovine (cattle), previously sacrificed. The same procedure was used for Haemochus spp. and T. colubriformis; however, the females were allowed to lay their eggs for 2-3 hours.
as §3, §4, §5
The nematode's eggs and larvae were placed in a number of 100 individuals in approximately 2 ml of LB medium diluted 10 times. This volume was introduced into safety valves that allow the air to go through the liquid and, therefore, the gasses make contact with the eggs and larvae. […]
as §19

Row | SMILES | Treatment effectiveness (E) [1] | Treatment effectiveness (E) [2] | Treatment effectiveness (E) [3] | Treatment effectiveness (E) [4]
1 | S [3. Esn, hydrogen sulfide] | 0.40 | 0.41 | 0.51 | 0.44
2 | S [5. Esd, hydrogen sulfide] | 0.38 | 0.37 | 0.47 | 0.40
3 | S [4. Esf, hydrogen sulfide] | 0.39 | 0.40 | 0.52 | 0.42
